In US20260166003A1, “NOVEL APTAMER, AND COMPOSITION FOR COGNITIVE FUNCTION IMPROVEMENT AND ANTI-AGING COMPRISING APTAMER AS ACTIVE INGREDIENT” (NEXMOS CO., LTD, priority 2021, published 2026):

Legend:
[1] = OPDA assay in gastric acid-like low pH environment; type: physicochemical; details: pH between 1.4 and 1.6 with hydrochloric acid, hydrogen peroxide, 900 minutes; compared to normal condition; FIG. 3
Experimental: OPDA assay was used to confirm whether the vitamin C oxidation delay effect of aptamin C320 was maintained in a low pH environment similar to gastric acid in order to confirm that the effect of the substance was not reduced or eliminated by the pH environment in the stomach when ingested orally.
Thereafter, hydrogen peroxide was added to prepare an oxidation condition, and at this time, the pH was adjusted to be between 1.4 and 1.6 using hydrochloric acid, and oxidation of L-ascorbic acid was measured by adding an o-phenylenediamine (OPDA), which is a fluorescent dye. The degree of DHA production can be quantitatively analyzed by measuring the amount of fluorescence from DHA-OPDA generated by the reaction of DHA, an oxide of L-ascorbic acid, with OPDA. Under the above conditions, the fluorescence amount of DHA-OPDA was measured every 2 minutes for a total of 900 minutes.

[2] = OPDA assay of vitamin C oxidation delay; type: biochemical; details: L-ascorbic acid 0.1%, aptamer 0.001%, hydrogen peroxide, 900 minutes; compared with C332 and other 20 mer aptamers; FIG. 2
Experimental: In this case, the L-ascorbic acid was mixed at a ratio of 0.1% and the aptamer was mixed at 0.001%. Thereafter, hydrogen peroxide was added to prepare an oxidation condition, and then oxidation of L-ascorbic acid was measured by adding o-phenylenediamine (OPDA), a fluorescent dye. The degree of DHA production may be quantitatively analyzed by measuring the amount of fluorescence from DHA-OPDA generated by the reaction of DHA, an oxide of L-ascorbic acid, with OPDA. Under the above conditions, the amount of fluorescence of DHA-OPDA was measured every 2 minutes for a total of 900 minutes.

**Q.** With “aptamin C320: 20 mer DNA aptamer, SEQ ID NO: 1, GCCAGTCTCGCGGTGGCGGC, delays oxidation of vitamin C (DNA, backbone and methylation of C not given here)” as the substance, how does the “maintenance of vitamin C oxidation delay effect in acid condition” value [1] read?
**A.** maintained without significantly decreasing in acid condition

**Q.** And the “vitamin C oxidation delay effect (DHA-OPDA fluorescence)” value [2]?
**A.** delays the oxidation of vitamin C to the highest extent
